Laboratory results as given in US20240246916A1, “7-NITRO-8-HYDROXYQUINOLINE DERIVATIVES, PREPARATION METHOD THEREFORE AND MEDICAL USE THEREOF” (Jiangsu Yahong Meditech Co., Ltd., priority 2021, published 2024).
Converted amounts (≈) assume the structure as drawn. Where two headings read alike, the source gives them in different places.

Tests used:
Assay type in all cases: cell-based
[1] = tested on: Escherichia coli (carbapenem-resistant clinical isolate; ATCC25922); assay: MIC by micro broth dilution (CLSI), Escherichia coli; settings: Escherichia coli
Source text: (§1) The test bacteria were one strain of clinically isolated carbapenem-resistant Escherichia coli, two strains of carbapenem-resistant Acinetobacter baumannii, two strains of methicillin-resistant Staphylococcus aureus, two strains of sensitive Staphylococcus aureus, and 7 strains of Klebsiella pneumoniae. Duplicate strains isolated from the same patient were eliminated. There were also […] quality control strains Escherichia coli ATCC25922, Acinetobacter baumannii ATCC19606, Staphylococcus aureus ATCC29213, Klebsiella pneumoniae ATCC BAA-1705, ATCC 43816, ATCC BAA-2472, ATCC-BAA-1898, ATCC-BAA-1899, NCTC 13440 and ATCC-BAA-2470. There were 24 strains in total.
(§2) According to the recommendations of relevant documents of the American Clinical and Laboratory Standards Institute (CLSI), the micro broth dilution method was used to determine the MIC of the compounds of the present invention against clinically isolated strains. • 3.1 Formulation of antibacterial drug: All the compounds of the present invention were dissolved in DMSO. The drug concentration range was 128 mg/L to 0.06 mg/L. • 3.2 Culture medium: The drug susceptibility test used cation adjusted Mueller-Hinton broth (CAMHB). • 3.3 Amount of inoculum: The test bacteria cultured overnight were adjusted to 0.5 McFarland turbidity by the direct colony suspension method, and diluted 100 folds, the final inoculum amount was 10^5 CFU/mL. • 3.4 Culture conditions: The test bacteria were cultured at 35±2° C. for 20 hours in air.
(§3) The drug susceptibility test results were interpretated by reference to CLSI 2019 M100 29th edition criteria.
(§4) The quality control strains of the drug susceptibility test were Escherichia coli ATCC 25922, Acinetobacter baumannii ATCC 19606, Staphylococcus aureus ATCC 29213, Klebsiella pneumoniae ATCC BAA-1705, ATCC 43816, ATCC BAA-2472, ATCC-BAA-1898, ATCC-BAA-1899, NCTC 13440 and ATCC-BAA-2470.
(§5) The results of drug susceptibility test were statistically analyzed by WHONET software (version 5.6).

[2] = tested on: Acinetobacter baumannii (carbapenem-resistant clinical isolates; ATCC19606); assay: MIC by micro broth dilution (CLSI), Acinetobacter baumannii; settings: Acinetobacter baumannii; for MIC50 / MIC90: ATCC19606
Source text: as §1, §2, §3, §4, §5

[3] = tested on: Staphylococcus aureus (methicillin-resistant and sensitive clinical isolates; ATCC29213); assay: MIC by micro broth dilution (CLSI), Staphylococcus aureus
Source text: as §1, §2, §3, §4, §5

[4] = ATCC25922, Clinical strain, read-out: MIC50
[5] = ATCC25922, Clinical strain, read-out: MIC90
[6] = Standard strain ATCC25922, read-out: MIC
[7] = Clinical strain, read-out: MIC50
[8] = Clinical strain, read-out: MIC90
[9] = Standard strain ATCC19606, read-out: MIC
[10] = Standard strain ATCC29213, read-out: MIC
[11] = clinical strains, micro broth dilution, CAMHB, 35±2° C., 20 hours, read-out: MIC50 Escherichia coli Clinical strain
[12] = clinical strains, micro broth dilution, CAMHB, 35±2° C., 20 hours, read-out: MIC90 Escherichia coli Clinical strain
[13] = standard strain ATCC25922, micro broth dilution, CAMHB, 35±2° C., 20 hours, read-out: MIC Escherichia coli Standard strain ATCC25922
[14] = clinical strains, micro broth dilution, CAMHB, 35±2° C., 20 hours, read-out: MIC50 Acinetobacter baumannii Clinical strain
[15] = clinical strains, micro broth dilution, CAMHB, 35±2° C., 20 hours, read-out: MIC90 Acinetobacter baumannii Clinical strain
[16] = standard strain ATCC19606, micro broth dilution, CAMHB, 35±2° C., 20 hours, read-out: MIC Acinetobacter baumannii Standard strain ATCC19606
[17] = clinical strains, micro broth dilution, CAMHB, 35±2° C., 20 hours, read-out: MIC50 Staphylococcus aureus Clinical strain
[18] = clinical strains, micro broth dilution, CAMHB, 35±2° C., 20 hours, read-out: MIC90 Staphylococcus aureus Clinical strain
[19] = standard strain ATCC29213, micro broth dilution, CAMHB, 35±2° C., 20 hours, read-out: MIC Staphylococcus aureus Standard strain ATCC29213

| MIC50 [1, 4] | MIC90 [1, 5] | MIC [1, 6] | MIC50 [2, 7] | MIC90 [2, 8] | MIC [2, 9] | MIC50 [3, 7] | MIC90 [3, 8] | MIC [3, 10] | MIC50 [1, 11] | MIC90 [1, 12] | MIC [1, 13] | MIC50 [2, 14] | MIC90 [2, 15] | MIC [2, 16] | MIC50 [3, 17] | MIC90 [3, 18] | MIC [3, 19] | Structure (SMILES) |
| --- | --- | --- | --- | --- | --- | --- | --- | --- | --- | --- | --- | --- | --- | --- | --- | --- | --- | --- |
| > 128 mg/L | > 128 mg/L | > 128 mg/L | 128 mg/L (≈ 442 µM) | > 128 mg/L | 128 mg/L (≈ 442 µM) | 128 mg/L (≈ 442 µM) | 128 mg/L (≈ 442 µM) | 128 mg/L (≈ 442 µM) | – | – | – | – | – | – | – | – | – | O=[N+]([O-])c1ccc2cc(CN3CCOCC3)cnc2c1O [Example 97, 3-(morpholinomethyl)-7-nitroquinolin-8-ol] |
| – | – | – | – | – | – | – | – | – | 16 mg/L (≈ 66 µM) | 32 mg/L (≈ 132 µM) | 8 mg/L (≈ 33 µM) | 4 mg/L (≈ 16.5 µM) | 8 mg/L (≈ 33 µM) | 4 mg/L (≈ 16.5 µM) | 2 mg/L (≈ 8.24 µM) | 4 mg/L (≈ 16.5 µM) | 4 mg/L (≈ 16.5 µM) | O=[N+]([O-])c1c(Cl)c(F)c2cccnc2c1O [Example 123, 6-chloro-5-fluoro-7-nitroquinolin-8-ol] |
| > 128 mg/L | > 128 mg/L | > 128 mg/L | > 128 mg/L | > 128 mg/L | > 128 mg/L | 128 mg/L (≈ 598 µM) | 128 mg/L (≈ 598 µM) | 128 mg/L (≈ 598 µM) | – | – | – | – | – | – | – | – | – | C#Cc1ccnc2c(O)c([N+](=O)[O-])ccc12 [Example 80, 4-ethynyl-7-nitroquinolin-8-ol] |
| 64 mg/L (≈ 223 µM) | 64 mg/L (≈ 223 µM) | 64 mg/L (≈ 223 µM) | 64 mg/L (≈ 223 µM) | 64 mg/L (≈ 223 µM) | 32 mg/L (≈ 111 µM) | 64 mg/L (≈ 223 µM) | 64 mg/L (≈ 223 µM) | 64 mg/L (≈ 223 µM) | – | – | – | – | – | – | – | – | – | O=[N+]([O-])c1ccc2cc(CN3CCCCC3)cnc2c1O [Example 95, 7-nitro-3-(piperidin-1-ylmethyl)quinolin-8-ol] |
| > 128 mg/L | > 128 mg/L | 128 mg/L | > 128 mg/L | > 128 mg/L | 128 mg/L | 128 mg/L | > 128 mg/L | 128 mg/L | – | – | – | – | – | – | – | – | – | O=[N+]([O-])c1cc(CN2CCOCC2)c2cccnc2c1O [Example 87, 5-(morpholinomethyl)-7-nitroquinolin-8-ol acetate] |
| > 128 mg/L | > 128 mg/L | 128 mg/L | > 128 mg/L | > 128 mg/L | > 128 mg/L | > 128 mg/L | > 128 mg/L | > 128 mg/L | – | – | – | – | – | – | – | – | – | Cl.Cl.Cl.O=[N+]([O-])c1ccc2cc(CN3CCNCC3)cnc2c1O [Example 102, 7-nitro-3-(piperazin-1-ylmethyl)quinolin-8-ol trihydrochloride] |
| – | – | – | – | – | – | – | – | – | 16 mg/L (≈ 70.8 µM) | 16 mg/L (≈ 70.8 µM) | 8 mg/L (≈ 35.4 µM) | 8 mg/L (≈ 35.4 µM) | 16 mg/L (≈ 70.8 µM) | 8 mg/L (≈ 35.4 µM) | 8 mg/L (≈ 35.4 µM) | 8 mg/L (≈ 35.4 µM) | 8 mg/L (≈ 35.4 µM) | O=[N+]([O-])c1c(F)c(F)c2cccnc2c1O [Example 125, 5,6-difluoro-7-nitroquinolin-8-ol] |
| – | – | – | – | – | – | – | – | – | 16 mg/L (≈ 55.7 µM) | 64 mg/L (≈ 223 µM) | 8 mg/L (≈ 27.9 µM) | 4 mg/L (≈ 13.9 µM) | 8 mg/L (≈ 27.9 µM) | 8 mg/L (≈ 27.9 µM) | 4 mg/L (≈ 13.9 µM) | 4 mg/L (≈ 13.9 µM) | 4 mg/L (≈ 13.9 µM) | O=[N+]([O-])c1c(Br)c(F)c2cccnc2c1O [Example 124, 6-bromo-5-fluoro-7-nitroquinolin-8-ol] |
| 16 mg/L (≈ 83.7 µM) | 16 mg/L (≈ 83.7 µM) | 8 mg/L (≈ 41.8 µM) | 4 mg/L (≈ 20.9 µM) | 4 mg/L (≈ 20.9 µM) | 4 mg/L (≈ 20.9 µM) | 4 mg/L (≈ 20.9 µM) | 8 mg/L (≈ 41.8 µM) | 4 mg/L (≈ 20.9 µM) | – | – | – | – | – | – | – | – | – | [2H]c1ccc2ccc([N+](=O)[O-])c(O)c2n1 [Example 116, 7-nitroquinolin-2-d-8-ol] |
| > 128 mg/L | > 128 mg/L | > 128 mg/L | 128 mg/L (≈ 393 µM) | > 128 mg/L | > 128 mg/L | 16 mg/L (≈ 49.1 µM) | 128 mg/L (≈ 393 µM) | 128 mg/L (≈ 393 µM) | – | – | – | – | – | – | – | – | – | O=[N+]([O-])c1cc(Cl)c2c(N3CCCC(F)C3)ccnc2c1O (stereo not drawn) [Example 119, 5-chloro-4-(3-fluoropiperidin-1-yl)-7-nitroquinolin-8-ol] |
